Source: patent publication US20240209027A1, “PEPTIDE AND PEPTIDE-CONTAINING COMPOSITION” (PeptiAID Inc.,, priority 2021, published 2024)
Like-named read-outs stand apart in the source and are kept apart here. Starred links: 1 amine or outer side, 2 acyl side, 3 side chain; linkers in the order of their positions; H or OH if unused. Positions of bridges follow the written chain, without caps; N, C: chain ends. Non-standard residues stand in square brackets, D forms with d. Residues, ends and D or L forms follow the SMILES beside them. *: point of attachment. Ala(piperidin-4-yl) = O=C([C@H](CC1CCN([*:3])CC1)N[*:1])[*:2]; Phe(4-COOH) = N[C@@H](Cc1ccc(C(=O)O)cc1)C(=O)O; Phe(4-F) = N[C@@H](Cc1ccc(F)cc1)C(=O)O; C12 diacid = O=C(O)CCCCCCCCCCC(=O)*; NMeE = CN[C@@H](CCC(=O)O)C(=O)O; Cha = N[C@@H](CC1CCCCC1)C(=O)O; Cit = NC(=O)NCCC[C@H](N)C(=O)O; NMeNle = CCCC[C@H](NC)C(=O)O; PEG2 = NCCOCCOCCC(=O)O; Aib = CC(C)(N)C(=O)O

What was measured:
[1] = test system: SARS-CoV2 (USA WA1/2020 strain); settings: 72 h
in vitro = settings: African green monkey
[2] = test system: SARS-CoV-2 (JPN/TY/WK-521 strain); format: cell-based; set-up: key: the case where the peptide was found to have anti-SARS-CoV-2 activity when added at 50 nM was designated as “2”; the case where no activity was found upon the addition at 50 nM but the activity was found at 1 μM was designated as “1”; settings: peptide added at 50 nM or 1 μM
[3] = biological target: SARS-CoV-2-derived S protein, Wuhan strain (Severe acute respiratory syndrome coronavirus 2, UniProt P0DTC2); format: cell-based
[4] = biological target: spike protein of SARS-CoV-2 (GENE Accession No. YP 009724390) (Severe acute respiratory syndrome coronavirus 2, UniProt P0DTC2); assay: Screening for target protein-binding peptides
Description: First, the spike protein of SARS-CoV-2 (GENE Accession No. YP 009724390) was set to a target and the screening method described in International Publication WO2014/119600, International Publication WO2012/033154, or International Publication WO 2007/066627 was used to discover the target protein-binding peptides.

[5] = test system: SARS-CoV-2 mouse subculture strain QHmusX; format: in vivo, BALB/c mice; settings: for lung histology (HE staining): day 10; for weight loss / respiratory symptoms: mouse, in vivo
[6] = test system: SARS-CoV-2 (USA WA1/2020 strain); format: in vivo, Golden Syrian hamsters; settings: for Chronic active inflammation (anterior lobe): Mild / Chronic active inflammation (anterior lobe): Moderate / Chronic active inflammation (anterior lobe): Severe / Chronic active inflammation (posterior lobe): Mild / Chronic active inflammation (posterior lobe): Minor / Chronic active inflammation (posterior lobe): Moderate / Chronic active inflammation (posterior lobe): Severe: cases; for Gross findings of the lung: Mottled fading (number of animals) / Gross findings of the lung: No change (number of animals): 6 animals

C[C@H]1C(=O)N(C)[C@@H](Cc2ccccc2)C(=O)N[C@@H](CO)C(=O)N[C@@H](CC2CCCCC2)C(=O)N[C@@H](Cc2ccc(O)cc2)C(=O)N[C@@H](CO)C(=O)N[C@@H](Cc2ccc(O)cc2)C(=O)N[C@@H](Cc2ccc(O)cc2)C(=O)N[C@@H](CCCNC(=N)N)C(=O)N[C@@H](CCCNC(=N)N)C(=O)N[C@@H](CC2CCCCC2)C(=O)N[C@H](C(=O)N[C@H](CCC(=O)O)C(N)=O)CSCC(=O)N1C [Peptide 5555_p000, MeA-MeF-S-Cha-Y-S-Y-Y-R-R-Cha-C]
IC50 [1]: 23.9 nM | CC50 at 72 h (in vitro): > 1000 nM | Anti-SARS-CoV-2 activity [2]: 2 | Imax: % (at 500 nM) [3]: 100% | binding to the spike protein of SARS-CoV-2 [4]: binds to the spike protein of SARS-CoV-2

CCCC[C@H]1C(=O)NC(C)(C)C(=O)N[C@@H](CC2CCCCC2)C(=O)N[C@@H](Cc2ccc(F)cc2)C(=O)NC(C)(C)C(=O)N[C@@H](Cc2ccc(O)cc2)C(=O)N[C@@H](Cc2ccc(O)cc2)C(=O)N[C@@H](Cc2ccc(C(=O)O)cc2)C(=O)N[C@@H](CC2CCNCC2)C(=O)N[C@@H](CC2CCCCC2)C(=O)N[C@H](C(=O)N[C@H](CCC(=O)O)C(N)=O)CSCC(=O)N(C)[C@@H](CCC(=O)O)C(=O)N1C [Peptide 5555_p020] ({CH2CO}-[NMeE][NMeNle][Aib][Cha][Phe(4-F)][Aib]YY[Phe(4-COOH)][Ala(piperidin-4-yl)][Cha]C[dE]-NH2; thioether N-12)
lung histology (HE staining) ([5]; 10 mg administration group): mild aggregation of lymphocytes (*) was observed around blood vessels near the bronchioles in some lung lobes | weight loss / respiratory symptoms [5]: no findings suggestive of weight loss or respiratory symptoms were observed | IC50 [1]: 2.3 nM | CC50 at 72 h (in vitro): > 1000 nM | Anti-SARS-CoV-2 activity [2]: 2 | Imax: % (at 500 nM) [3]: 99%

CCCC[C@H]1C(=O)NC(C)(C)C(=O)N[C@@H](CC2CCCCC2)C(=O)N[C@@H](Cc2ccc(F)cc2)C(=O)N[C@H](CC(=O)O)C(=O)N[C@@H](Cc2ccc(O)cc2)C(=O)N[C@@H](Cc2ccc(O)cc2)C(=O)N[C@@H](CCCNC(N)=O)C(=O)N[C@H](CCCCN)C(=O)N[C@@H](CC2CCCCC2)C(=O)N[C@H](C(=O)N[C@H](CCC(=O)O)C(=O)O)CSCC(=O)N(C)[C@@H](CCC(=O)O)C(=O)N1C [Peptide 5555_p028] ({CH2CO}-[NMeE][NMeNle][Aib][Cha][Phe(4-F)][dD]YY[Cit][dK][Cha]C[dE]-OH; thioether N-12)
lung histology (HE staining) ([5]; 30 mg administration group): mild aggregation of cells (*) was observed around blood vessels in almost all lung lobes | weight loss / respiratory symptoms [5]: the rate of weight loss improved significantly (P<0.05) after the fourth day | IC50 [1]: 3.5 nM | Chronic active inflammation (anterior lobe): Mild ([6]; 1 mg/kg (n = 6)): 5 | Chronic active inflammation (anterior lobe): Moderate ([6]; 1 mg/kg (n = 6)): 1 | Chronic active inflammation (anterior lobe): Severe ([6]; 1 mg/kg (n = 6)): 0 | Chronic active inflammation (posterior lobe): Mild ([6]; 1 mg/kg (n = 6)): 5 | Chronic active inflammation (posterior lobe): Minor ([6]; 1 mg/kg (n = 6)): 0 | Chronic active inflammation (posterior lobe): Moderate ([6]; 1 mg/kg (n = 6)): 1 | Chronic active inflammation (posterior lobe): Severe ([6]; 1 mg/kg (n = 6)): 0 | body weight, Mean ([6]; 1 mg/kg i.p., Day 0): 126.75 | body weight, Mean ([6]; 1 mg/kg i.p., Day 1): 124.03 | body weight, Mean ([6]; 1 mg/kg i.p., Day 2): 122.3 | body weight, Mean ([6]; 1 mg/kg i.p., Day 3): 120.17 | body weight, Mean ([6]; 1 mg/kg i.p., Day 4): 120.33 | body weight, Mean ([6]; 1 mg/kg i.p., Day 5): 120.75 | body weight, Mean ([6]; 1 mg/kg i.p., Day −6): 118.63 | Gross findings of the lung: Mottled fading (number of animals) ([6]; 1 mg/kg): 6 number of animals | Gross findings of the lung: No change (number of animals) ([6]; 1 mg/kg): 0 number of animals | SARS-CoV-2 genome copy number in lung (RT-qPCR), Log10 of Geometric mean (copy number/gram) ([6]; 1 mg/kg, Day 5): 8.15 copy number/gram | SARS-CoV-2 genome copy number in lung vs solvent control ([6]; 5 mg/kg): statistically significant decrease | Chronic active inflammation (anterior lobe): Mild ([6]; 5 mg/kg (n = 6)): 1 | Chronic active inflammation (anterior lobe): Moderate ([6]; 5 mg/kg (n = 6)): 5 | Chronic active inflammation (anterior lobe): Severe ([6]; 5 mg/kg (n = 6)): 0 | Chronic active inflammation (posterior lobe): Mild ([6]; 5 mg/kg (n = 6)): 3 | Chronic active inflammation (posterior lobe): Minor ([6]; 5 mg/kg (n = 6)): 2 | Chronic active inflammation (posterior lobe): Moderate ([6]; 5 mg/kg (n = 6)): 1 | Chronic active inflammation (posterior lobe): Severe ([6]; 5 mg/kg (n = 6)): 0 | Chronic active inflammation (posterior lobe): Minor ([6]; 5 mg/kg (n = 6), listed as 5555_028): Minor lung inflammation was observed in the posterior lobe in two cases | body weight, Mean ([6]; 5 mg/kg i.p., Day 0): 126.52 | body weight, Mean ([6]; 5 mg/kg i.p., Day 1): 122.87 | body weight, Mean ([6]; 5 mg/kg i.p., Day 2): 120.87 | body weight, Mean ([6]; 5 mg/kg i.p., Day 3): 120.42 | body weight, Mean ([6]; 5 mg/kg i.p., Day 4): 118.52 | body weight, Mean ([6]; 5 mg/kg i.p., Day 5): 119.68 | body weight, Mean ([6]; 5 mg/kg i.p., Day −6): 118.67 | Gross findings of the lung: Mottled fading (number of animals) ([6]; 5 mg/kg): 6 number of animals | Gross findings of the lung: No change (number of animals) ([6]; 5 mg/kg): 0 number of animals | SARS-CoV-2 genome copy number in lung (RT-qPCR), Log10 of Geometric mean (copy number/gram) ([6]; 5 mg/kg, Day 5): 7.72 copy number/gram | SARS-CoV-2 genome copy number in lung vs solvent control ([6]; 25 mg/kg): decreasing trend | Chronic active inflammation (anterior lobe): Mild ([6]; 25 mg/kg (n = 6)): 2 | Chronic active inflammation (anterior lobe): Moderate ([6]; 25 mg/kg (n = 6)): 4 | Chronic active inflammation (anterior lobe): Severe ([6]; 25 mg/kg (n = 6)): 0 | Chronic active inflammation (posterior lobe): Mild ([6]; 25 mg/kg (n = 6)): 6 | Chronic active inflammation (posterior lobe): Minor ([6]; 25 mg/kg (n = 6)): 0 | Chronic active inflammation (posterior lobe): Moderate ([6]; 25 mg/kg (n = 6)): 0 | Chronic active inflammation (posterior lobe): Severe ([6]; 25 mg/kg (n = 6)): 0 | body weight, Mean ([6]; 25 mg/kg i.p., Day 0): 129.63 | body weight, Mean ([6]; 25 mg/kg i.p., Day 1): 126.85 | body weight, Mean ([6]; 25 mg/kg i.p., Day 2): 126.68 | body weight, Mean ([6]; 25 mg/kg i.p., Day 3): 126.22 | body weight, Mean ([6]; 25 mg/kg i.p., Day 4): 124.45 | body weight, Mean ([6]; 25 mg/kg i.p., Day 5): 121.62 | body weight, Mean ([6]; 25 mg/kg i.p., Day −6): 118.95 | Gross findings of the lung: Mottled fading (number of animals) ([6]; 25 mg/kg): 4 number of animals | Gross findings of the lung: No change (number of animals) ([6]; 25 mg/kg): 2 number of animals | Gross findings of the lung: No change (number of animals) ([6]; 25 mg/kg, listed as 5555_028): no lung fading was observed in two cases | SARS-CoV-2 genome copy number in lung (RT-qPCR), Log10 of Geometric mean (copy number/gram) ([6]; 25 mg/kg, Day 5): 8.76 copy number/gram | severity of lung inflammation vs solvent control ([6]; 1, 5, or 25 mg/kg i.p.): The severity of lung inflammation was reduced | weight loss vs solvent control ([6]; hamster, in vivo): the weight loss was suppressed to the same degree at any of the doses | Anti-SARS-CoV-2 activity [2]: 2 | Imax: % (at 500 nM) [3]: 91%

CCCC[C@H]1C(=O)NC(C)(C)C(=O)N[C@@H](CC2CCCCC2)C(=O)N[C@@H](Cc2ccc(F)cc2)C(=O)N[C@H](CC(=O)O)C(=O)N[C@@H](Cc2ccc(O)cc2)C(=O)N[C@@H](Cc2ccc(O)cc2)C(=O)N[C@@H](CCCNC(N)=O)C(=O)N[C@H](CCCCN)C(=O)N[C@@H](CC2CCCCC2)C(=O)N[C@H](C(=O)N[C@H](CCC(=O)O)C(=O)NCCOCCOCCC(=O)N[C@H](CCCCNC(=O)CCCCCCCCCCC(=O)O)C(N)=O)CSCC(=O)N(C)[C@@H](CCC(=O)O)C(=O)N1C [Peptide 5555_p227] ({CH2CO}-[NMeE][NMeNle][Aib][Cha][Phe(4-F)][dD]YY[Cit][dK][Cha]C[dE][PEG2][dK](C12 diacid)-NH2; thioether N-12)
IC50 (SARS-CoV-2 Wuhan strain): 11.5 nM | IC50 (SARS-CoV-2 Delta strain): 8 nM
